Drawing on paper PMC7414198, “Genomic and enzymatic evidence of acetogenesis by anaerobic methanotrophic archaea” (Nature Communications, 2020), this text covers Km for two compounds.

By Km is commonly meant the substrate concentration at which the rate is half of its maximum.

Experiment [1] has as its system acetyl-CoA synthetase (Acs) from ANME-2a. The settings on record: acetyl-CoA-forming direction; concentrations of ATP and CoA not given.
The test system of experiment [2] is T1, ADP-forming acetate-CoA ligase (Acd) from ANME-2a.
T1 construct: alpha (55 kDa) and beta (25 kDa) subunits, codon-optimised synthetic genes in pET-28a (NdeI/BamHI and BamHI/SalI, RBS before beta), E. coli BL21(DE3)-groEL, Ni-NTA purified
In words: DTNB assay of HSCoA release, […] nm. It counts as biochemical, ANME-2 cluster archaeon (ANME-2a, uncultured). The following applies: acetate-forming direction; 2 mM ADP, 40 mM K3PO4, 1 mM MgCl2, 20 mM Tris-HCl pH 8.0.

Experiment [3] relates to T2, acetyl-CoA synthetase (Acs) from ANME-2a.
T2 construct: codon-optimised synthetic gene in pET-28a (NdeI/BamHI), E. coli Rosetta(DE3), Ni-NTA purified, 70 kDa
Nature of the experiment: DTNB assay of HSCoA release, […] nm. Type of experiment: biochemical, ANME-2 cluster archaeon (ANME-2a, uncultured). The settings on record: acetate-forming direction; 2 mM AMP, 2 mM PPi, 1.25 M KCl, 1 mM MgCl2, 20 mM Tris-HCl pH 8.0.

Like-named read-outs stand apart in the source and are kept apart here.

In the case of `CC(=O)O` [acetate], the Km in experiment [1] came to 490 µM.

For the compound `CC(=O)SCCNC(=O)CCNC(=O)[C@H](O)C(C)(C)COP(=O)(O)OP(=O)(O)OC[C@H]1O[C@@H](n2cnc3c(N)ncnc32)[C@H](O)[C@@H]1OP(=O)(O)O` [acetyl-CoA], the Michaelis constant (Km) in experiment [2] came to 31.3 µM; in experiment [3], 8.5 µM.
